Laboratory results taken from DBAASP.
Values after ≈ are worked out from the molar mass of the structure shown.

Tests used:
Assay in all cases: ≥ marks a high value that may be exact or a test limit, other limits are often not marked, values filed in µg/mL are converted to µM
[1] = test system: Staphylococcus aureus ATCC 6538
[2] = test system: Pseudomonas aeruginosa ATCC 27853
[3] = test system: Bacillus subtilis ATCC 6633
[4] = test system: Escherichia coli K-12
[5] = test system: Micrococcus luteus NCIMB 13267
[6] = test system: Streptococcus agalactiae CECT 183T
[7] = test system: Staphylococcus aureus CECT 435
[8] = test system: Enterococcus faecalis CECT 481
[9] = test system: Escherichia coli CECT 434
[10] = test system: Candida krusei ATCC 6258
[11] = test system: Staphylococcus aureus MR
[12] = test system: Candida glabrata ATCC 90030
[13] = test system: Proteus mirabilis CCUG 26767
[14] = test system: Enterococcus faecium ATCC 19434
[15] = test system: Enterococcus faecalis ATCC 19433
[16] = test system: Klebsiella pneumoniae ATCC 13883
[17] = test system: Escherichia coli ATCC 25922
[18] = test system: Salmonella enterica subsp. enterica serovar Typhimurium LT2
[19] = test system: Staphylococcus aureus ATCC 29213
[20] = test system: Enterococcus faecalis ATCC 29212
[21] = test system: Streptococcus dysgalactiae subsp. dysgalactiae ATCC 27957
[22] = test system: Streptococcus agalactiae ATCC 27956
[23] = test system: Salmonella enterica subsp. enterica serovar Typhimurium ATCC 14028
[24] = test system: Streptococcus equi subsp. zooepidemicus ATCC 43079
[25] = test system: Bacillus cereus ATCC 10876
[26] = test system: Klebsiella pneumoniae NCTC 13368
[27] = test system: Pseudomonas aeruginosa PAO1
[28] = test system: Staphylococcus aureus USA 300
[29] = test system: Escherichia coli NCTC 12923
[30] = test system: Staphylococcus aureus ATCC 9144
[31] = test system: Candida krusei NCPF 3876
[32] = test system: Acinetobacter baumannii ATCC 17978
[33] = test system: Candida albicans ATCC 90028
[34] = test system: Enterococcus faecium ATCC 700221
[35] = test system: Klebsiella pneumoniae ATCC 700603
[36] = test system: Staphylococcus aureus ATCC 33591
[37] = test system: Acinetobacter baumannii ATCC 19606
[38] = test system: Acinetobacter baumannii CR17
[39] = test system: Acinetobacter baumannii ATCC BAA-1605
[40] = test system: Pseudomonas aeruginosa PA214

An MIC [1] of over 200 µM, an MIC [2] of over 200 µM and an MIC [3] of at least 200 µM were found for `CC(C)C[C@H](NC(=O)[C@H](CO)NC(=O)[C@H](CCC(=O)O)NC(=O)[C@H](CC(C)C)NC(=O)[C@H](CCC(N)=O)NC(=O)[C@H](CCC(N)=O)NC(=O)[C@H](CCC(=O)O)NC(=O)[C@H](CC(C)C)NC(=O)[C@H](CCC(N)=O)NC(=O)[C@H](CO)NC(=O)[C@H](CC(C)C)NC(=O)[C@H](CCC(=O)O)NC(=O)[C@H](CCC(N)=O)NC(=O)[C@H](CCC(=O)O)NC(=O)[C@H](CC(C)C)NC(=O)[C@H](CO)NC(=O)[C@H](CCC(N)=O)NC(=O)[C@H](C)NC(=O)[C@H](CCC(=O)O)NC(=O)[C@H](CCC(N)=O)NC(=O)[C@H](CCC(=O)O)NC(=O)[C@H](Cc1ccccc1)NC(=O)[C@H](CCC(N)=O)NC(=O)[C@H](C)NC(=O)[C@H](Cc1ccccc1)NC(=O)[C@H](CCC(=O)O)NC(=O)CN)C(=O)O` [GEFAQFEQEAQSLEQELSQLEQQLESL] in this work. The MIC [4] was at least 200 µM and the MIC [5] was at least 200 µM.

An MIC [6] of 7.88 µM (≈ 16 µg/mL), an MIC [7] of 7.88 µM (≈ 16 µg/mL) and an MIC [8] of 7.88 µM (≈ 16 µg/mL) were found for `CC[C@H](C)[C@H](NC(=O)CNC(=O)[C@H](CCC(N)=O)NC(=O)[C@@H](NC(=O)[C@@H]1CCCN1C(=O)CNC(=O)[C@H](CC(=O)O)NC(=O)CNC(=O)[C@H](CCCCN)NC(=O)[C@H](CC(C)C)NC(=O)[C@@H](NC(=O)[C@H](CS)NC(=O)[C@@H](NC(=O)[C@H](C)NC(=O)[C@H](CCCCN)NC(=O)[C@@H](NC(=O)[C@H](C)N)[C@@H](C)O)C(C)C)C(C)C)C(C)C)C(=O)N[C@H](C(=O)N[C@@H](CC(N)=O)C(=O)N[C@@H](Cc1ccccc1)C(=O)O)[C@@H](C)CC` [ATKAVCVLKGDGPVQGIINF] in this work. It also gave an MIC [9] of 31.5 µM (≈ 64 µg/mL), an MIC [10] of 3.94 µM (≈ 8 µg/mL) and an MIC [11] of 7.88 µM (≈ 16 µg/mL). For the same compound, the MIC [12] was at least 126 µM.

An MIC [13] of at least 388 µM, an MIC [2] of over 388 µM and an MIC [14] of at least 388 µM were found for `CC[C@H](C)[C@H](NC(=O)[C@H](CC(C)C)NC(=O)[C@@H]1CCCN1C(=O)[C@H](CC(C)C)NC(=O)[C@@H](N)Cc1ccccc1)C(=O)N[C@@H](CC(C)C)C(=O)N[C@@H](Cc1ccccc1)C(=O)N[C@@H](Cc1c[nH]c2ccccc12)C(=O)N[C@H](C(=O)N[C@H](C(=O)N[C@H](C(=O)N[C@@H](C)C(=O)N[C@@H](CC(C)C)C(N)=O)[C@@H](C)O)C(C)C)[C@@H](C)CC` [FLPLILFWIVTAL] in this work. For the same compound, the MIC [15] was at least 388 µM, the MIC [3] was at least 388 µM and the MIC [16] was at least 388 µM. For the same compound, the MIC [17] was over 388 µM, the MIC [18] was at least 388 µM and the MIC [19] was over 388 µM.

An MIC [1] of 0.414 µM (≈ 1.5 µg/mL), an MIC [2] of over 8.83 µM and an MIC [20] of 0.552 µM (≈ 2 µg/mL) were found for `CC[C@H](C)[C@H](NC(=O)[C@H](CC(C)C)NC(=O)[C@H](CC(N)=O)NC(=O)CNC(=O)[C@H](Cc1ccccc1)NC(=O)[C@@H](NC(=O)[C@H](CCCN=C(N)N)NC(=O)[C@@H](NC(=O)[C@H](CC(C)C)NC(=O)[C@H](CCC(N)=O)NC(=O)[C@H](Cc1ccc(O)cc1)NC(=O)[C@@H](N)Cc1c[nH]c2ccccc12)[C@@H](C)CC)[C@@H](C)O)C(=O)N[C@@H](Cc1cnc[nH]1)C(=O)N[C@@H](CCC(N)=O)C(=O)N[C@@H](CCCCN)C(=O)N[C@@H](Cc1ccc(O)cc1)C(=O)N[C@@H](CCCN=C(N)N)C(=O)N[C@@H](CCCCN)C(=O)N[C@@H](CC(C)C)C(=O)N[C@@H](CC(C)C)C(=O)N[C@@H](CCC(=O)O)C(=O)N[C@@H](C)C(=O)N[C@@H](Cc1ccc(O)cc1)C(=O)N[C@@H](CCCN=C(N)N)C(=O)N[C@@H](CCCCN)C(=O)N[C@@H](CC(C)C)C(=O)N[C@@H](CCCN=C(N)N)C(=O)N[C@@H](CC(=O)O)C(=O)O` [WYQLIRTFGNLIHQKYRKLLEAYRKLRD] in this work. It also gave an MIC [21] of 11 µM (≈ 39.9 µg/mL), an MIC [22] of 11 µM (≈ 39.9 µg/mL) and an MIC [23] of over 8.83 µM. It also gave an MIC [24] of 11 µM (≈ 39.9 µg/mL) and an MIC [25] of 1.66 µM (≈ 6 µg/mL).

An MIC [26] of at least 112 µM, an MIC [27] of over 112 µM and an MIC [28] of at least 112 µM were found for `CC[C@H](C)[C@H](N)C(=O)N[C@@H](CCCN=C(N)N)C(=O)NCC(=O)N[C@@H](Cc1ccc(O)cc1)C(=O)N[C@@H](CCCCN)C(=O)NCC(=O)NCC(=O)N[C@@H](Cc1ccc(O)cc1)C(=O)N[C@@H](CS)C(=O)N[C@@H](CCCCN)C(N)=O` [IRGYKGGYCK] in this work. It also gave an MIC [29] of at least 112 µM, an MIC [30] of at least 112 µM and an MIC [31] of at least 112 µM. The MIC [32] was at least 112 µM and the MIC [33] was 15.4 µM (≈ 17.6 µg/mL).

An MIC [34] of 5.75 µM (≈ 8.49 µg/mL), an MIC [35] of 5.75 µM (≈ 8.49 µg/mL) and an MIC [36] of 5.75 µM (≈ 8.49 µg/mL) were found for `CC[C@H](C)[C@H](NC(=O)[C@H](CCCCN)NC(=O)[C@H](CCCN=C(N)N)NC(=O)[C@H](Cc1ccccc1)NC(=O)[C@H](CC(C)C)NC(=O)[C@H](CCCN=C(N)N)NC(=O)[C@@H](N)CCCCN)C(=O)N[C@@H](CC(C)C)C(=O)N[C@@H](CCCCN)C(=O)N[C@@H](Cc1ccc(O)cc1)C(=O)N[C@@H](CC(C)C)C(N)=O` [KRLFRKILKYL] in this work. It also gave an MIC [37] of 3.04 µM (≈ 4.5 µg/mL), an MIC [38] of 16.1 µM (≈ 23.8 µg/mL) and an MIC [2] of 11.5 µM (≈ 17 µg/mL). It also gave an MIC [17] of 11.5 µM (≈ 17 µg/mL) and an MIC [39] of 3.04 µM (≈ 4.5 µg/mL).

An MIC [27] of over 50 µM, an MIC [4] of 12.5 µM (≈ 25 µg/mL) and an MIC [40] of at least 50 µM were found for `CC(C)C[C@H](NC(=O)[C@H](Cc1ccccc1)NC(=O)[C@H](C)NC(=O)[C@H](C)NC(=O)[C@H](CCCCN)NC(=O)[C@H](CCCCN)NC(=O)[C@H](CCCCN)NC(=O)[C@@H](N)CCCCN)C(=O)N[C@@H](CCCCN)C(=O)N[C@@H](CC(C)C)C(=O)N[C@@H](Cc1c[nH]c2ccccc12)C(=O)N[C@@H](CC(C)C)C(=O)N[C@@H](CCCCN)C(=O)N[C@@H](CC(C)C)C(=O)N[C@@H](Cc1ccccc1)C(=O)N[C@@H](C)C(=O)N[C@@H](C)C(N)=O` [KKKKAAFLKLWLKLFAA] in this work.
